Assay results as given in patent US20250041379A1, “METHODS AND COMPOSITIONS FOR THE TREATMENT OF CANCER” (Vigeo Therapeutics, Inc., priority 2021, published 2025).
No end group written: not given here.

Key:
Assay type in all cases: in vivo, human
[1] = test system: tumor microenvironment (TME) in pancreatic cancer; test: Modulation of the TME in paired tumor biopsies by multiplex ion beam image analysis, pancreatic cancer; details: 8 pairs of pancreatic cancer biopsies from Parts 1 & 2
Procedure: FIG. 5A and FIG. 5B are charts showing that VT1021 modulates the TME in pancreatic cancer.
In the “expansion stage” of the VT1021-01 Study, subjects diagnosed with recurrent GBM, pancreatic cancer, ovarian cancer and other solid tumors were enrolled. They were treated with VT1021 at 11.8 mg/kg, twice weekly by IV infusion. The blood samples were collected from the clinical study at pre-treatment, 0, 2, 4, 6 hours post treatment to measure the levels of VT1021 (FIG. 2). The tumor biopsy samples prior to treatment and during treatment were collected from the clinical study to measure expression levels of biomarkers including CD36 and CD47, as well as cell surface markers for immune cell populations in the TME by immunohistochemistry assays (FIG. 3, FIG. 4, FIG. 5). The correlation between days on study and tumor shrinkage versus expression profile of CD36 and CD47 was analyzed (FIG. 4). The general expression profile of CD36 and CD47 has been assessed by IHC on Tumor Tissue Microarrays (TMAs), which contain biopsy samples collected from pancreatic cancer patients. TMAs were purchased from commercial sources, not related to the VT1021-01 clinical study.
FIG. 5A and FIG. 5 B are charts showing that VT1021 modulates the TME in pancreatic cancer. Modulation of the TME by VT1021 in paired biopsies from subjects with pancreatic cancer was assessed by multiplex ion beam image analysis. Representative images from 1 of 3 regions of interest in tumor biopsies from a subject obtained pre-treatment (pre) and on-study (on). […] TSP-1+increased >2 fold in on-study biopsies compared to pre-treatment, both the CTL/Treg and M1/M2 macrophage ratios increased and the percent of M1 macrophages increased >3 fold in the TME after treatment with VT1021.

subjects with rGBM = test: Phase I/II clinical study (NCT03364400): adverse events in subjects with recurrent GBM
Procedure: VT1021 was evaluated in a recently completed phase I/II open-label, multicenter, dose escalation (Part 1) and expansion (Part 2) clinical study in advanced, refractory, solid tumors including recurrent GBM (rGBM) (NCT03364400). Thirty-two subjects with rGBM were dosed in Part 2, 22 of which were considered evaluable as having completed ≥1 cycle of VT1021 treatment and tumor imaging during cycle 2. […]

recurrent GBM (rGBM) = test: Phase I/II clinical study: clinical response and duration of treatment in recurrent GBM
Procedure: VT1021 was evaluated in a recently completed phase I/II open-label, multicenter, dose escalation (Part 1) and expansion (Part 2) clinical study in advanced, refractory, solid tumors including recurrent GBM (rGBM) (NCT03364400). Thirty-two subjects with rGBM were dosed in Part 2, 22 of which were considered evaluable as having completed ≥1 cycle of VT1021 treatment and tumor imaging during cycle 2. […] The blood samples were collected from GBM subjects in the expansion phase, who were treated by VT1021 at 11.8 mg/kg, twice weekly, by IV infusion. VT1021 levels were measured and analyzed among male and female subjects (FIG. 7). Days on study have been collected from the same group of subjects (FIG. 8). […] CD36 and CD47 levels have been measured by immunohistochemistry assays in the pre-treatment tumor biopsy samples of the GBM subjects (FIG. 9, FIG. 10). Levels of Tsp-1 were measured by ELISA for circulating Tsp-1 levels in the collected blood samples, and by immunohistochemistry for the level of Tsp-1 accumulated in the tumor biopsy samples (FIG. 10). The infiltration of immune and inflammatory cells, specifically, MDSCs, T cells and macrophages, were determined by immunohistochemical analysis of the levels of cell surface markers in the tumor biopsy samples of subjects (FIG. 11). […] Among 22 evaluable rGBM subjects, 3 had complete response (CR), 1 had partial response (PR), and 7 had stable disease (SD) with an average study duration of over 203 days. The overall disease control rate (DCR) was 50%. […] Of the 11 CR/PR/SDs, 6 were dual high (55%). […] Complete response scan images and lesion shrinkage for 1 of 3 subjects who achieved CR.

[2] = test system: circulating immune cells (CTLs, helper T cells, MDSCs); test: Flow cytometry of immune cells isolated from whole blood of rGBM subjects; details: Cycle 1 Day 1
Excerpt: FIG. 11A, FIG. 11B, FIG. 11C, FIG. 11D, FIG. 11E, and FIG. 11F are charts showing modulation of the immune system by VT1021 in circulation and in the TME. […] Proliferating CTLs increased ≥1.5 fold regardless of clinical response, proliferating helper T cells increased ≥1.5 fold in CR/PR and PD subjects while monocytic MDSCs (mMDSCs) and activated MDSCs decreased≤0.5 fold in all evaluable subjects. […] Percent of M1 increased 1.9-fold while M2 decreased 0.6-fold after treatment. […] CTLs increased >4 fold while total and mMDSCs […] >15 fold in the on-study biopsy compared to pre-treatment.

[3] = GBM, 32 Subjects, all cycles, maximum grade, regardless of causality
[4] = among 22 evaluable rGBM subjects
[5] = among the 9 CD36/CD47 dual-high rGBM subjects
[6] = the 9 CD36/CD47 dual-high rGBM subjects
[7] = whole blood before and after 6 hours, all evaluable subjects, decreased

**Q.** With “cyclic DWLPK (also: cyclic, mode of cyclisation not given here) [VT1021, 5-amino acid cyclic peptide from prosaposin; Tsp-1-inducing agent]” as the substance, how does the “CTL/Treg ratio in the TME after treatment” value [1] read?
**A.** increased

**Q.** What about the “M1/M2 macrophage ratio in the TME after treatment” value [1] of the same substance?
**A.** increased

**Q.** And the “TSP-1+ mean intensity, increase on-study vs pre-treatment” value [1]?
**A.** > 2 fold

**Q.** What about the “percent of M1 macrophages, increase in the TME after treatment” value [1] of the same substance?
**A.** > 3 fold

**Q.** What about the “Abdominal Pain (AE), All Grades” value (subjects with rGBM; [3]) of the same substance?
**A.** 5

**Q.** What about the “Abdominal Pain (AE), Grade 1-2” value (subjects with rGBM; [3]) of the same substance?
**A.** 5

**Q.** And the “Diarrhea (AE), All Grades” value (subjects with rGBM; [3])?
**A.** 4

**Q.** What about the “Diarrhea (AE), Grade 1-2” value (subjects with rGBM; [3]) of the same substance?
**A.** 4

**Q.** What about the “Fall (AE), All Grades” value (subjects with rGBM; [3]) of the same substance?
**A.** 9

**Q.** And the “Fall (AE), Grade 1-2” value (subjects with rGBM; [3])?
**A.** 9

**Q.** And the “Infusion reaction (AE), All Grades” value (subjects with rGBM; [3])?
**A.** 3

**Q.** What about the “Infusion reaction (AE), Grade 1-2” value (subjects with rGBM; [3]) of the same substance?
**A.** 3

**Q.** What about the “Nausea (AE), All Grades” value (subjects with rGBM; [3]) of the same substance?
**A.** 3

**Q.** What about the “Nausea (AE), Grade 1-2” value (subjects with rGBM; [3]) of the same substance?
**A.** 3

**Q.** What about the “Vomiting (AE), All Grades” value (subjects with rGBM; [3]) of the same substance?
**A.** 3

**Q.** What about the “Vomiting (AE), Grade 1-2” value (subjects with rGBM; [3]) of the same substance?
**A.** 2

**Q.** And the “Vomiting (AE), Grade 3-4” value (subjects with rGBM; [3])?
**A.** 1

**Q.** And the “major adverse events (AEs)” value (subjects with rGBM; phase I/II study, solid tumors including rGBM)?
**A.** no major adverse events

**Q.** What about the “treatment until lesion no longer measurable” value (recurrent GBM (rGBM); 1 CR rGBM subject, MRI lesion measurement) of the same substance?
**A.** 9 cycles

**Q.** And the time on study (recurrent GBM (rGBM); 1 CR rGBM subject, still on-going)?
**A.** 476 days

**Q.** And the “overall disease control rate (DCR)” value (recurrent GBM (rGBM); 22 evaluable rGBM subjects)?
**A.** 50%

**Q.** And the “subjects with complete response (CR)” value (recurrent GBM (rGBM); [4])?
**A.** 3

**Q.** What about the “subjects with partial response (PR)” value (recurrent GBM (rGBM); [4]) of the same substance?
**A.** 1

**Q.** What about the “subjects achieving CR” value (recurrent GBM (rGBM); [5]) of the same substance?
**A.** 3

**Q.** What about the “subjects achieving SD” value (recurrent GBM (rGBM); [5]) of the same substance?
**A.** 3 subjects

**Q.** And the average study duration (recurrent GBM (rGBM); rGBM subjects with CR, PR or SD)?
**A.** over 203 days

**Q.** What about the DCR (recurrent GBM (rGBM); [6]) of the same substance?
**A.** 67%

**Q.** What about the overall response rate (recurrent GBM (rGBM); [6]) of the same substance?
**A.** 33.3%

**Q.** What about the “Proliferating CTLs, fold change” value ([2]; whole blood before and after 6 hours of treatment, regardless of clinical response, increased) of the same substance?
**A.** ≥ 1.5 fold

**Q.** What about the “proliferating helper T cells, fold change” value ([2]; whole blood before and after 6 hours, CR/PR and PD subjects, increased) of the same substance?
**A.** ≥ 1.5 fold

**Q.** And the “activated MDSCs, fold change” value [2, 7]?
**A.** ≤ 0.5 fold

**Q.** What about the “monocytic MDSCs (mMDSCs), fold change” value [2, 7] of the same substance?
**A.** ≤ 0.5 fold
